In patent publication US6703214B2, “Lipid uptake assays” (Devgen NV, priority 2000, dated 2004):

What was measured:
C. elegans = test: Fatty acid uptake assay after overnight compound incubation (activation of FATPs), C4-BODIPY-C9 probe; assay type: in vivo
Experimental: A fixed amount of probe is then distributed in the microtiter wells. The nematodes are incubated for one hour at room temperature in presence or absence of molecules to be tested. The microtiter plate is rinsed 3 to 4 times, using a standard plate washer (Wellwash, Labsystems, Zellik, Belgium), taking care to perform the aspiration sufficiently distant from the bottom of the well to avoid any loss of nematodes remaining at the bottom. The fluorescence intensity is then measured using a fluorescence microtiter plate reader, using a standard set of fluorescein filters.
Retinoic acid and troglutazones are activators of RXR and PPARγ respectively. C. elegans worms were incubated with these compounds in a range from 100 μM to 0.1 μM for a time period between 1 to 6 hours. Fatty acid uptake was measured using the microtiter plate assay described above.
More particularly, constitutive pharynx pumping worms in late L4 stage or young adults were incubated overnight on agar plates with different concentrations of the retinoic acid or troglutazone (e.g. Rosiglitazon). The compounds were added as solutions in 1 ml M9. After overnight incubation, these worms were further incubated for 1 h with 50 μM C4-BODIPY-C9 in 1 ml M9 on the same agar plates. After incubation the worms were washed three times and dispensed with the worm dispenser, up to 50 worms per well in the multi-well plates. Fluorescence intensity was measured using a microtiter plate reader, as described above.

[1] = system: wild type (N2) C. elegans; test: Lipid uptake assay with quenched probe (QBFA) in liquid culture after overnight compound incubation on agar plates; assay type: in vivo; details: L4 stage worms, about 16 h with various concentrations; 10 μM QBFA, fluorescence read after 2 hours; FIG. 21
Experimental: Standard 9 cm agar plates were seeded with E. coli (any strain suitable for use in culture of C. elegans may be used). 1 ml volume of rosiglitazone at various concentrations was added to the plates and the plates seeded with L4 stage C. elegans. After an overnight incubation (approximately 16 h), the C. elegans were isolated and washed three times with approximately 15 ml M9 buffer. The worms were then re-suspended into microtiter plates, at 100 worms per well. Quenched probe (QBFA) was added at a final concentration of 10 μM in a total volume of 100 μl. Fluorescence measurements were taken after 2 hours in an automated plate reader. Typical results are illustrated in FIG. 21.

Compound | increase in fatty acid uptake (C. elegans; constitutive pharynx pumping worms, late L4/young adults, overnight incubation with compound on agar plates, 1 h with 50 μM C4-BODIPY-C9, FIG. 8) [fold] | increase in fatty acid uptake, also observed at low concentration (C. elegans; only 3 μM of Rosiglitazon applied, otherwise as E1) [fold] | effect on lipid uptake (in words) [1] | effect on fatty acid uptake (in words) (C. elegans; increased expression of FATP by applying the compound)
CN(CCOc1ccc(CC2SC(=O)NC2=O)cc1)c1ccccn1 (stereo not shown) [Rosiglitazon] | 5 | 5 | have an effect on lipid uptake | –
troglutazone | – | – | – | clearly enhanced fatty acid uptake
